According to PubChem BioAssay AID1963841 (Molecular Pharmacology Branch, DTP, NCI, 2024):

System: 439559-082-T-J2-PDC spheroid viability
Experiment: Anticancer human tumor 439559-082-T-J2-PDC patient-derived colon adenocarcinoma cell line growth inhibition [POLQ]
Conditions: spheroids with HUVEC and MSC; for IC50: curve of first compound; for viability, T/C: stronger effect = lower value
Summary of the method: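 Three-cell-type spheroids modelling solid tumor plus stroma served as the readout system; POL inhibitors were tested individually and in combination, concentration ranges set by clinical Cmax where known.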

[1] = second compound 0.0316 µM, first compound 0.0316 µM
[2] = second compound 0.0316 µM, first compound 0.1 µM
[3] = second compound 0.0316 µM, first compound 0.316 µM
[4] = second compound 0.0316 µM, first compound 1 µM
[5] = second compound 0.0316 µM, first compound 3.16 µM
[6] = second compound 0.0316 µM, first compound 10 µM
[7] = second compound 0.1 µM, first compound 0.0316 µM
[8] = second compound 0.1 µM, first compound 0.1 µM
[9] = second compound 0.1 µM, first compound 0.316 µM
[10] = second compound 0.1 µM, first compound 1 µM
[11] = second compound 0.1 µM, first compound 3.16 µM
[12] = second compound 0.1 µM, first compound 10 µM
[13] = second compound 0.316 µM, first compound 0.0316 µM
[14] = second compound 0.316 µM, first compound 0.1 µM
[15] = second compound 0.316 µM, first compound 0.316 µM
[16] = second compound 0.316 µM, first compound 1 µM
[17] = second compound 0.316 µM, first compound 3.16 µM
[18] = second compound 0.316 µM, first compound 10 µM
[19] = second compound 1 µM, first compound 0.0316 µM
[20] = second compound 1 µM, first compound 0.1 µM
[21] = second compound 1 µM, first compound 0.316 µM
[22] = second compound 1 µM, first compound 1 µM
[23] = second compound 1 µM, first compound 3.16 µM
[24] = second compound 1 µM, first compound 10 µM
[25] = second compound 3.16 µM, first compound 0.0316 µM
[26] = second compound 3.16 µM, first compound 0.1 µM
[27] = second compound 3.16 µM, first compound 0.316 µM
[28] = second compound 3.16 µM, first compound 1 µM
[29] = second compound 3.16 µM, first compound 3.16 µM
[30] = second compound 3.16 µM, first compound 10 µM
[31] = second compound 10 µM, first compound 0.0316 µM
[32] = second compound 10 µM, first compound 0.1 µM
[33] = second compound 10 µM, first compound 0.316 µM
[34] = second compound 10 µM, first compound 1 µM
[35] = second compound 10 µM, first compound 3.16 µM
[36] = second compound 10 µM, first compound 10 µM
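Also: spheroids exposed to compounds for seven days before readout.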
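For viability, T/C in this document: 100% = DMSO vehicle control viability.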

For `CCc1cc2c(N3CCc4c(cc(Cn5ccnc5)cc4-c4cn(C)nc4C(F)(F)F)C3=O)ccnc2c(OC)n1` + Cc1cccc(N(C)C(=O)C2C(O)CCN2c2nc(C)cc(C(F)(F)F)c2C#N)c1, the IC50 (second compound 0.0316 µM) was > 10 µM, the IC50 (second compound 0.1 µM) was > 10 µM and the IC50 (second compound 0.316 µM) was > 10 µM. The IC50 (second compound 1 µM) was > 10 µM, the IC50 (second compound 3.16 µM) was > 10 µM and the IC50 (second compound 10 µM) was > 10 µM. The viability, T/C [1] was 98%, the viability, T/C [2] was 95.5% and the viability, T/C [3] was 101%. It also gave a viability, T/C [4] of 97.1%, a viability, T/C [5] of 93.1% and a viability, T/C [6] of 87%. It also gave a viability, T/C [7] of 126%, a viability, T/C [8] of 96.4% and a viability, T/C [9] of 90.6%. It also gave a viability, T/C [10] of 92.5%, a viability, T/C [11] of 95.2% and a viability, T/C [12] of 89.4%. The viability, T/C [13] was 105%, the viability, T/C [14] was 109% and the viability, T/C [15] was 102%. The viability, T/C [16] was 98%, the viability, T/C [17] was 98.8% and the viability, T/C [18] was 83.7%. It also gave a viability, T/C [19] of 101%, a viability, T/C [20] of 104% and a viability, T/C [21] of 85.1%. The viability, T/C [22] was 93.7%, the viability, T/C [23] was 93% and the viability, T/C [24] was 90.2%. For the same molecule, the viability, T/C [25] was 115%, the viability, T/C [26] was 106% and the viability, T/C [27] was 83.3%. For the same molecule, the viability, T/C [28] was 92.2%, the viability, T/C [29] was 103% and the viability, T/C [30] was 96.1%. It also gave a viability, T/C [31] of 94.9%, a viability, T/C [32] of 87% and a viability, T/C [33] of 99.5%. It also gave a viability, T/C [34] of 89.3%, a viability, T/C [35] of 91.7% and a viability, T/C [36] of 77.3%.

With `CCc1cc2c(N3CCc4c(cc(Cn5ccnc5)cc4-c4cn(C)nc4C(F)(F)F)C3=O)cc(C)nc2c(OC)n1` + COC1C(OC(N)=O)C(O)C(Oc2ccc3c(O)c(NC(=O)c4ccc(O)c(CC=C(C)C)c4)c(=O)oc3c2C)OC1(C)C the IC50 (second compound 0.0316 µM) was > 10 µM, the IC50 (second compound 0.1 µM) was > 10 µM and the IC50 (second compound 0.316 µM) was > 10 µM. The IC50 (second compound 1 µM) was > 10 µM, the IC50 (second compound 3.16 µM) was > 10 µM and the IC50 (second compound 10 µM) was > 10 µM. It also gave a viability, T/C [1] of 104%, a viability, T/C [2] of 103% and a viability, T/C [3] of 98.8%. For the same molecule, the viability, T/C [4] was 102%, the viability, T/C [5] was 95.4% and the viability, T/C [6] was 91.4%. It also gave a viability, T/C [7] of 102%, a viability, T/C [8] of 101% and a viability, T/C [9] of 91.7%. It also gave a viability, T/C [10] of 95.2%, a viability, T/C [11] of 92.7% and a viability, T/C [12] of 94.3%. It also gave a viability, T/C [13] of 95.5%, a viability, T/C [14] of 93.9% and a viability, T/C [15] of 102%. It also gave a viability, T/C [16] of 97.7%, a viability, T/C [17] of 94.9% and a viability, T/C [18] of 101%. For the same molecule, the viability, T/C [19] was 99.4%, the viability, T/C [20] was 105% and the viability, T/C [21] was 103%. The viability, T/C [22] was 95.7%, the viability, T/C [23] was 94.3% and the viability, T/C [24] was 93.3%. The viability, T/C [25] was 93.1%, the viability, T/C [26] was 101% and the viability, T/C [27] was 96.6%. For the same molecule, the viability, T/C [28] was 90.4%, the viability, T/C [29] was 95.7% and the viability, T/C [30] was 94.4%. The viability, T/C [31] was 105%, the viability, T/C [32] was 94.4% and the viability, T/C [33] was 93.6%. The viability, T/C [34] was 91.2%, the viability, T/C [35] was 95.7% and the viability, T/C [36] was 83.8%.
